Experimental data as given in patent publication US20220227720A1, “DHODH INHIBITORS AND THEIR USE AS ANTIVIRAL AGENTS” (priority 2019, published 2022).
Values after ≈ are worked out from the molar mass of the structure shown. Like-named read-outs stand apart in the source and are kept apart here.

Key:
[1] = test system: TAHV; assay: microbe, parasite or virus in culture; type: cell-based; conditions: Tahyna virus, Vero C1008, read-out: IC50 TAHV
[2] = Hydrolysis study in mouse liver extract; conditions: FIG. 1, FIG. 2
[3] = test system: VEEV; assay: microbe, parasite or virus in culture; type: cell-based; conditions: Venezuelan equine encephalitis virus, SW13, read-out: IC50 VEEV
[4] = test system: RVFV; assay: microbe, parasite or virus in culture; type: cell-based; conditions: Rift Valley fever virus, SW13, read-out: IC50 RVFV
[5] = test system: TBEV; assay: microbe, parasite or virus in culture; type: cell-based; conditions: Tick-borne encephalitis virus, SW13, read-out: IC50 TBEV
[6] = Plasma protein binding; conditions: mouse, plasma diluted with 1 volume of PBS pH 7.4, pH 7.4
[7] = test system: RVFV; assay: microbe, parasite or virus in culture; type: cell-based; conditions: Rift Valley fever virus, Vero C1008, read-out: IC50 RVFV
[8] = Log D (PBS pH 7.4/octanol)
[9] = test system: TOSV; assay: microbe, parasite or virus in culture; type: cell-based, Toscana virus
[10] = test system: TBEV; assay: microbe, parasite or virus in culture; type: cell-based; conditions: Tick-borne encephalitis virus, Vero C1008, read-out: IC50 TBEV
[11] = test system: HAZV; assay: microbe, parasite or virus in culture; type: cell-based; conditions: Hazara virus, Vero C1008, read-out: IC50 HAZV
[12] = test system: YFV; assay: microbe, parasite or virus in culture; type: cell-based; conditions: Yellow fever virus, Vero C1008, read-out: IC50 YFV
[13] = test system: RVFV; assay: microbe, parasite or virus in culture; type: cell-based; conditions: Rift Valley fever virus, L929, in Mus musculus, read-out: IC50 RVFV
[14] = test system: VEEV; assay: microbe, parasite or virus in culture; type: cell-based; conditions: Venezuelan equine encephalitis virus, L929, in Mus musculus, read-out: IC50 VEEV
[15] = test system: VEEV; assay: microbe, parasite or virus in culture; type: cell-based; conditions: Venezuelan equine encephalitis virus, HEK293, read-out: IC50 VEEV
[16] = test system: RVFV; assay: microbe, parasite or virus in culture; type: cell-based; conditions: Rift Valley fever virus, HEK293, read-out: IC50 RVFV
[17] = Plasma stability; conditions: 1 μm, 37° C., mouse plasma diluted with 1 volume of PBS pH 7.4
[18] = test system: VEEV; assay: microbe, parasite or virus in culture; type: cell-based; conditions: Venezuelan equine encephalitis virus, Vero C1008, read-out: IC50 VEEV
[19] = Solubility in PBS pH 7.4; conditions: PBS pH 7.4, 20 °C, pH 7.4, aqueous buffer
[20] = test system: DENV; assay: Virus yield reduction assay, DENV in Vero E6 cells; type: cell-based; conditions: Dengue virus, Vero C1008; Simian Vero E6 cells; FLAVI virus family
[21] = test system: ZIKV; assay: Virus yield reduction assay, ZIKV in Vero E6 cells; type: cell-based; conditions: Zika virus, Vero C1008; Simian Vero E6 cells; FLAVI virus family
[22] = Cytotoxicity assay (CellTiter-Blue), Vero E6 cells; conditions: for CC50 at 4 days: monkey (simian), Vero E6 cells, CC50, Simian Vero E6 cells, value repeated under each virus; for CC50: cell line not given
[23] = test system: TBEV; assay: microbe, parasite or virus in culture; type: cell-based; conditions: Tick-borne encephalitis virus, L929, in Mus musculus, read-out: IC50 TBEV
[24] = test system: VEEV; assay: microbe, parasite or virus in culture; type: cell-based; conditions: Venezuelan equine encephalitis virus, BHK-21, in Mesocricetus auratus, read-out: IC50 VEEV
[25] = test system: RVFV; assay: microbe, parasite or virus in culture; type: cell-based; conditions: Rift Valley fever virus, BHK-21, in Mesocricetus auratus, read-out: IC50 RVFV
[26] = Cytotoxicity assay, SW13 cells; conditions: human
[27] = Cytotoxicity assay (CellTiter-Blue), HEK-293 cells; conditions: human
[28] = Cytotoxicity assay, BHK-21 cells; conditions: hamster, BHK-21 cells, CC50, Hamster BHK-21 cells; value repeated under each virus
[29] = Cytotoxicity assay, L929 cells; conditions: mouse
[30] = test system: Vero E6 cells; assay: Cytotoxicity assay (CellTiter-Blue), Vero E6 cells; conditions: Simian Vero E6 cells; value repeated under each virus
[31] = Hepatic microsome stability; conditions: 1 μm, 37° C., 0.5 mg/mL microsomes of mouse liver; cofactor: NADPH
[32] = test system: YFV; assay: microbe, parasite or virus in culture; type: cell-based; conditions: Yellow fever virus, BHK-21, in Mesocricetus auratus, read-out: IC50 YFV
[33] = test system: TBEV; assay: microbe, parasite or virus in culture; type: cell-based; conditions: Tick-borne encephalitis virus, HEK293, read-out: IC50 TBEV
[34] = Metabolic stability in S9 fraction
[35] = Toscana virus, Vero C1008, read-out: IC50 (TOSV)

Compound	IC50 [1]	IC50 [7]	IC50 [9, 35]	IC50 [10]	IC50 [11]	IC50 [14]	IC50 [18]	CC50 at 4 days [22]	IC50 [23]	CC50 [29]	CC50 [22]	further results
CCC(C)c1ccccc1OCCCC(=O)Nc1ccccc1C(=O)O (racemic) [Example 3]	40 nM	160 nM	70 ± 10 nM	80 nM	110 nM	600 nM	30 nM	18500 ± 1500 nM	300 nM	–	–	Hydrolysis in mouse liver extract (amide bond stability) [2]: cleavage of the amide bond; IC50 [3]: 130 nM; IC50 [4]: 50 nM; IC50 [5]: 100 nM; fraction unbound at 1 μM [6]: 0.01; logD [8]: 2.59 ± 0.03; IC50 [12]: 110 nM; IC50 [13]: 170 nM; IC50 [15]: 50 nM; IC50 [16]: 15 nM; Plasma stability [% remaining at 2 h] [17]: 85 ± 4 % remaining at 2 h; solubility [19]: 1540 ± 50 µM (≈ 547 µg/mL); IC50 [20]: 110 nM; IC50 [21]: 110 nM
Cc1ccc(NC(=O)COc2ccccc2Cc2ccccc2)c(C(=O)O)c1 [Example 1]	170 nM	90 nM	90 nM	220 nM	50 nM	–	70 nM	60000 ± 15000 nM	80 nM	60000 nM	–	IC50 [3]: 100 nM; IC50 [4]: 280 nM; IC50 [5]: 670 nM; fraction unbound at 1 μM [6]: 0.01; IC50 [24]: 360 nM; IC50 [25]: 700 ± 30 nM; CC50 [26]: 60000 nM; logD [8]: 2.62 ± 0.03; IC50 [12]: 200 nM; IC50 [13]: 40 nM; CC50 at 3 days [27]: 80000 nM; CC50 [28]: 140000 nM; IC50 [16]: 40 ± 20 nM; Plasma stability [% remaining at 2 h] [17]: 75 ± 0 % remaining at 2 h; solubility [19]: 167 ± 7 µM (≈ 62.7 µg/mL); IC50 [20]: 190 nM
CC(C)c1ccccc1SCC(=O)Nc1ccccc1C(=O)O [Example 2]	270 nM	~2000 nM	550 ± 50 nM	–	700 ± 200 nM	–	–	110000 ± 10000 nM	–	–	–	IC50 [3]: 1500 nM; IC50 [4]: 500 nM; IC50 [5]: 930 nM; IC50 [12]: 700 ± 200 nM; IC50 [15]: 450 nM; IC50 [16]: 400 nM
COc1ccc(Nc2ccc(Oc3ccccc3)cc2)c(C(=O)O)c1 [Example 4]	100 nM	20 nM	80 nM	120 nM	120 nM	220 nM	60 nM	71000 ± 1000 nM	160 nM	70000 nM	–	IC50 [3]: 220 nM; IC50 [4]: 130 nM; IC50 [5]: 380 nM; IC50 [24]: 1300 nM; IC50 [25]: 850 nM; CC50 [26]: 75000 nM; IC50 [12]: 220 nM; CC50 at 3 days [27]: 125000 nM; CC50 [28]: 125000 nM; IC50 [20]: 180 nM; CC50 [30]: 37900 nM
O=C(O)c1ccccc1Nc1ccc(Cc2ccccc2)cc1 [Example 5]	450 nM	–	325 nM	–	360 nM	> 1000 nM	–	44000 nM	–	60000 nM	–	CC50 [30]: 77500 nM
CCC(=O)Nc1ccc(-c2ccc(-c3ccccc3)cc2)cc1C(=O)O [Example 6]	–	140 nM	120 nM	120 ± 10 nM	120 nM	9 nM	120 nM	10000 nM	9 nM	15000 nM	–	Hydrolysis in mouse liver extract (amide bond stability) [2]: more stable; IC50 [25]: > 200 nM; logD [8]: 3.07 ± 0.05; IC50 [13]: 3 nM; IC50 [15]: 19 nM; Plasma stability [% remaining at 2 h] [17]: 94 ± 6 % remaining at 2 h; Hepatic microsome stability [% remaining at 1 h] [31]: 49 ± 0 % remaining at 1 h; solubility [19]: 61 ± 17 µM (≈ 21.1 µg/mL); IC50 [32]: > 200 nM
CCC(=O)Nc1ccc(-c2ccc(-c3ccccc3)c(F)c2)cc1C(=O)O [Example 7]	120 nM	120 nM	110 nM	13 nM	70 nM	7 nM	120 nM	15000 nM	4 nM	9000 nM	–	IC50 [13]: 5.5 nM; IC50 [15]: 14 nM
CCCCCc1ccc(C#Cc2ccc(NC(=O)CC)c(C(=O)O)c2)cc1 [Example 8, 5-((4-pentylphenyl)ethynyl)-2-propionamidobenzoic acid]	10 nM	6 nM	10 nM	70 nM	8 nM	3 nM	7 nM	8000 nM	1.5 nM	5000 nM	–	IC50 [3]: 13 nM; IC50 [4]: 8 nM; IC50 [5]: 13 nM; IC50 [25]: 16 nM; CC50 [26]: 20000 nM; logD [8]: 4.6 ± 0.3; IC50 [12]: 6 nM; IC50 [13]: 2 nM; CC50 [28]: 7500 nM; IC50 [15]: 1.5 nM; IC50 [16]: 1.5 nM; Plasma stability [% remaining at 2 h] [17]: 114 ± 5 % remaining at 2 h; IC50 [33]: 3.1 nM; Hepatic microsome stability [% remaining at 1 h] [31]: 70 ± 3 % remaining at 1 h; solubility [19]: 18 ± 6 µM (≈ 6.54 µg/mL); IC50 [20]: 5 nM; IC50 [21]: 9 nM; IC50 [32]: 22 nM
CCC(C)c1ccccc1OCCOC(=O)Nc1ccccc1C(=O)O (stereo not drawn) [Example 12]	–	–	190 nM	–	–	–	–	–	–	–	51000 nM	Metabolic stability in a S9 fraction (rat) [34]: high metabolic stability
CCC(C)(C)c1ccccc1OCCOC(=O)Nc1ccccc1C(=O)O [Example 13]	–	–	128 nM	–	–	–	–	–	–	–	> 25000 nM	Metabolic stability in a S9 fraction (rat) [34]: high metabolic stability
O=C(O)c1ccccc1NC(=O)n1ccc2ccccc21 [Example 14]	–	–	9000 nM	–	–	–	–	–	–	–	40000 nM	–
CCC(C)c1ccccc1OCCCC(=O)Nc1cnccc1C(=O)O (stereo not drawn) [Example 15]	–	–	~500 nM	–	–	–	–	–	–	–	> 25000 nM	–
CCC(C)c1ccccc1OCC(=O)Nc1ccc2c(c1C(=O)O)OC(F)(F)O2 (stereo not drawn) [Example 16]	–	–	4000 nM	–	–	–	–	–	–	–	37000 nM	–
O=C(COc1ccccc1Cc1ccccc1)Nc1ccc2c(c1C(=O)O)OC(F)(F)O2 [Example 17]	–	–	6000 nM	–	–	–	–	–	–	–	32000 nM	–
CCc1nc2cc(-c3ccc(-c4ccccc4)cc3)cc(C(=O)O)c2[nH]1 [Example 19]	–	–	118 nM	–	–	–	–	–	–	–	8000 nM	–
CCC(C)c1ccccc1OCc1nc2ccc(C)cc2c(=O)o1 (stereo not drawn) [Example 20]	–	–	600 nM	–	–	–	–	–	–	–	75000 nM	–
Cc1ccc2nc(COc3ccc(Cl)cc3Cc3ccccc3)oc(=O)c2c1 [Example 21]	–	–	800 nM	–	–	–	–	–	–	–	> 100000 nM	–
CCC(C)c1ccccc1OCCCc1nc2ccc(F)cc2c(=O)o1 (stereo not drawn) [Example 22]	–	–	300 nM	–	–	–	–	–	–	–	17000 nM	–
CS(N)(=O)=O [methyl sulfonamide]	–	–	–	–	–	–	–	–	–	–	–	IC50 ([9]; read-out: IC50 (TOSV)): 1500 nM
